Numbering of substitutions follows the chain as printed.
B1: FGF-7: secreted, recombinant human protein profiled in the bronchosphere assay (protein, UniProt P21781 32-194, looked up)
Fibroblast growth factor 7: CNDMTPEQMATNVNCSSPERHTRSYDYMEGGDIRVRRLFCRTQWYLRIDKRGKVKGTQEMKNNYNIMEIRTVAVGIVAIKGVESEFYLAMNKEGKLYAKKECNEDCNFKELILENHYNTYASAKWTHNGGEMFVALNQKGIPVRGKKTKKEQKTAHFLPMAIT
B2: IL-29: secreted, recombinant human protein profiled in the bronchosphere assay (protein, UniProt Q8IU54 20-200, looked up)
Interferon lambda-1: GPVPTSKPTTTGKGCHIGRFKSLSPQELASFKKARDALEESLKLKNWSCSSPVFPGNWDLRLLQVRERPVALEAELALTLKVLEAAAGPALEDVLDQPLHTLHHILSQLQACIQPQPTAGPRPRGRLHHWLHRLQEAPKKESAGCLEASVTFNLFRLLTRDLKYVADGNLCLRTSTHPEST
B3: IL-28A: secreted, recombinant human protein profiled in the bronchosphere assay (protein, UniProt Q8IZJ0 26-200, looked up)
Interferon lambda-2: VPVARLHGALPDARGCHIAQFKSLSPQELQAFKRAKDALEESLLLKDCRCHSRLFPRTWDLRQLQVRERPMALEAELALTLKVLEATADTDPALVDVLDQPLHTLHHILSQFRACIQPQPTAGPRTRGRLHHWLYRLQEAPKKESPGCLEASVTFNLFRLLTRDLNCVASGDLCV
B4: IL-28B: secreted, recombinant human protein profiled in the bronchosphere assay (protein, UniProt Q8IZI9 22-196, looked up)
Interferon lambda-3: B3 Interferon lambda-2 with H7R, R49K, H51R, M71V, V95G, F112L, Y135H
B5: IL-1a: secreted, recombinant human protein profiled in the bronchosphere assay (protein, UniProt P01583 113-271, looked up)
Interleukin-1 alpha: SAPFSFLSNVKYNFMRIIKYEFILNDALNQSIIRANDQYLTAAALHNLDEAVKFDMGAYKSSKDDAKITVILRISKTQLYVTAQDEDQPVLLKEMPEIPKTITGSETNLLFFWETHGTKNYFTSVAHPNLFIATKQDYWVCLAGGPPSITDFQILENQA

Tests used:
[1] = system: bronchospheres (human bronchial epithelial cells); assay: Bronchosphere assay of secreted recombinant human proteins, qPCR of cell type markers and immunostaining; format: cell-based; settings: for change in expression of at least one cell-type marker, initial screen: 55 proteins tested at 3.3, 10 and 30 ng/mL; for expression of both of the ciliated cell markers: markers FOXJ1, DNAI2; for expression of at least two of the goblet cell markers: markers MUC5AC, MUC5B, FOXA3; for change in expression of at least one of the cell-type markers, on validation: expanded concentration range
Method: (§1) Human bronchial epithelial (HBE) cells and culture media were obtained from Lonza. Air-liquid interface cultures using passage 2 (P2) cells were performed as previously described (Danahay, H. et al., American journal of physiology. Lung cellular and molecular physiology 282, L226-236 (2002)). For three-dimensional culturing of HBE cells, P1 cells were trypsinized and resuspended (30,000 cells/ml) in HBE differentiation media containing 5% growth factor-reduced Matrigel (BD Biosciences). 20 μl of suspension was plated in each well of a 384-well plate (Greiner) pre-coated with 10 μl of a 25% solution of Matrigel (BD Biosciences) in HBE differentiation media. Wells were fed or treated at day 2 and day 8 of culture by adding 30 μl of differentiation media containing the appropriate treatment. Three-dimensional cultures were analyzed at the time points indicated.
Immunofluorescence of HBEC bronchospheres was performed as described previously for MCF10A cysts (Debnath, J. et al., Methods 30, 256-268 (2003) with the following modifications. After incubation with fluorescence-conjugated secondary antibodies, DNA was stained with a 1:1 mix of PBS and ProLong gold antifade containing DAPI. Confocal microscopy was performed at room temperature on a microscope (Zeiss LSM510 Meta) using an EC Plan-Neofluar 10×/0.30 dry objective (Zeiss), an EC Plan-Neofluor 20×/0.5 dry objective (Zeiss), a C-Apochromat 40×/1.2 W corr (Zeiss), or a C-Apochromat 63×/1.2 W Corr objective (Zeiss). Images were collected with Zen confocal software (Zeiss). Scale bars were added, and images were processed using Zen (Zeiss) and Photoshop (Adobe). Air-liquid interface (ALI) cultures were processed for immunofluorescence analysis after 14 days of culture at ALI by rinsing the apical surface of each filter with PBS, and then fixing in 4% paraformaldehyde for 4 hours. Filters were washed with IF buffer (130 mM NaCl, 7 mM Na2HPO4, 3.5 mM NaH2PO4, 7.7 mM NaN3, 0.1% bovine serum albumin, 0.2% Triton X-100, 0.05% Tween-20), blocked with IF wash containing 10% goat serum, and stained with primary antibody in IF wash containing 10% goat serum overnight at 4° C. Secondary antibodies were used at a 1:200 dilution in IF buffer containing 10% goat serum. To quantify the total staining area of ALI cultures, 10×13 images were collected with a plan Neofluar 10×0.3 NA Ph1 objective (EC; Carl Zeiss, Inc.) on a microscope (Axiovert 200; Carl Zeiss, Inc.) equipped with a motorized stage and a camera (Orca-ER-1394; Hamamatsu Photonics) controlled by Axiovision software (Carl Zeiss, Inc.) and used to generate a single composite image using the MOSAIX function in Zeiss Axiovision. Quantification of the total staining area was performed with ImageJ. Two to three regions of each ALI culture were punched out with a 4 mm biopsy punch (Miltex, Inc.) and mounted in ProLong gold antifade containing DAPI for imaging by confocal microscopy on a microscope (Axiovert 200; Carl Zeiss, Inc.) equipped with a motorized stage, a Yokogawa CSU-X1 spinning disc head, and an EMCCD camera (Evolve 512, Photometrics), with a Plan-Apochromat 100×/1.4 Oil DIC objective (Zeiss). Cells positive for MUC5AC, MUC5B, or cilia (acetylated α-Tubulin) staining were counted manually. For time-lapse video microscopy, HBECs were imaged at the indicated times during bronchosphere development at 37° C. with a plan Neofluar 10×0.3 NA Ph1 objective (EC; Carl Zeiss, Inc.). Images were taken every 5 min for the indicated time period. Annotations (time stamp and scale bar) were added and videos were assembled using Axiovision software.
RNA was isolated from 3D bronchosphere cultures with Trizol (Invitrogen), using manufacturer's specifications. To isolate RNA from mouse tissue, approximately 20 mg of tissue was placed in a 1.5 ml eppendorf tube with 1 ml of Buffer RLT Plus (Qiagen). A 5 mm stainless steel bead (Qiagen) was added to the tube, and the tissue was sheared using a Tissue Lyser II (Qiagen).

airway basal cells = assay: Air-liquid interface (ALI) cultures of airway basal cells treated with IL-17A; format: cell-based, human; settings: IL-17A from day 7 (day 0 at ALI), analysed day 21; FIGS. 3d, 3e
Method: as §1, with “Wells were fed or treated at day 2 and day 8 of culture by adding 30 μl of differentiation media containing the appropriate treatment.” left out
Immunofluorescence of HBEC bronchospheres was performed as described previously for MCF10A cysts (Debnath, J. et al., Methods 30, 256-268 (2003) with the following modifications. After incubation with fluorescence-conjugated secondary antibodies, DNA was stained with a 1:1 mix of PBS and ProLong gold antifade containing DAPI. Confocal microscopy was performed at room temperature on a microscope (Zeiss LSM510 Meta) using an EC Plan-Neofluar 10×/0.30 dry objective (Zeiss), an EC Plan-Neofluor 20×/0.5 dry objective (Zeiss), a C-Apochromat 40×/1.2 W corr (Zeiss), or a C-Apochromat 63×/1.2 W Corr objective (Zeiss). […]

[2] = IL-13 treated bronchospheres, immunostaining, FIG. 2c
[3] = IL-13 treatment between days 2 and 14 after seeding, qPCR, FIG. 2a

Molecule | change in expression of at least one cell-type marker, initial screen [1] | expression of both of the ciliated cell markers [1] | expression of at least two of the goblet cell markers [1] | change in expression of at least one of the cell-type markers, on validation [1] | further results
IFN-γ: secreted, recombinant human protein profiled in the bronchosphere assay | concentration-dependent change | attenuated | enhanced | robust change | 
IL1-β: secreted, recombinant human protein profiled in the bronchosphere assay | concentration-dependent change | attenuated | enhanced | robust change | 
IL-13: secreted, recombinant human protein (inflammatory cytokine) profiled in the bronchosphere assay | concentration-dependent change | attenuated | enhanced | robust change | acetylated α-tubulin positive structures [1, 2]: lack; secreted mucins in the central lumen [1, 2]: accumulation; ciliated cell marker expression [1, 3]: declined; expression of markers of goblet cells [1, 3]: clear enhancement; concentrations toxic and disrupting bronchosphere formation ([1]; data not shown): > 3 ng/mL
IL-17A: secreted, recombinant human protein; cytokine secreted by Th17 cells | concentration-dependent change | attenuated | enhanced | robust change | basal cell markers ([1]; IL-17A, qPCR, FIG. 3c): No significant changes; levels of goblet cell markers (MUC5AC, MUC5B and FOXA3) ([1]; broader range of IL-17A concentrations, qPCR, FIG. 3a): increased levels; expression of markers of ciliated cells (FOXJ1 and DNAI2) ([1]; broader range of IL-17A concentrations, qPCR, FIG. 3b): inhibiting; goblet cell population (MUC5AC and MUC5B markers) (airway basal cells): profound expansion; number of ciliated cells (α-tubulin marker) (airway basal cells): dramatic reduction
B1 | concentration-dependent change |  |  |  | expression of MUC5B ([1]; bronchosphere assay): enhanced; effect on any of the other markers ([1]; markers other than MUC5B): without affecting
B2 | concentration-dependent change | attenuated | enhanced | robust change | 
B3 | concentration-dependent change | attenuated | enhanced | robust change | 
B4 | concentration-dependent change | attenuated | enhanced | robust change | 
B5 | concentration-dependent change | attenuated | enhanced | robust change | 

From patent US9944700B2, “Notch2 binding molecules for treating respiratory diseases” (NOVARTIS AG, priority 2013, dated 2018)
